For test [1], the target named is T1, cardiac myofibrils (myosin ATPase).
T1 construct: frozen myofibril pellets obtained from cardiac tissue; from tissue
Put plainly: Cardiac Myofibril ATPase Assay (counter screen). It is filed as biochemical. The following applies: myofibrils 1.0 mg/mL, KCl omitted. In short, it runs like this: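 Myosin ATPase rate followed via NADH disappearance at 340 nm, coupled through pyruvate kinase and lactate dehydrogenase, using cardiac myofibril pellets (final 1.0 mg/mL) without KCl. IC50 values reflect rate reduction compared with vehicle-treated wells.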
Background: Counterscreens check selectivity or assay interference.

Test [2] concerns the target skeletal myofibrils (myosin ATPase). Put plainly: Skeletal Myofibril ATPase Assay. It is filed as biochemical. The essentials: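 Rates of NADH loss (A340, kinetic read over 45 min) report ADP generation by myofibrillar myosin, coupled through pyruvate kinase and lactate dehydrogenase; pCa buffer at pH 7.0. IC50 fitted by 4-parameter logistic after normalizing to 1% DMSO controls; cardiac myofibrils served for selectivity.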

T1 sequence (P12883 whole entry): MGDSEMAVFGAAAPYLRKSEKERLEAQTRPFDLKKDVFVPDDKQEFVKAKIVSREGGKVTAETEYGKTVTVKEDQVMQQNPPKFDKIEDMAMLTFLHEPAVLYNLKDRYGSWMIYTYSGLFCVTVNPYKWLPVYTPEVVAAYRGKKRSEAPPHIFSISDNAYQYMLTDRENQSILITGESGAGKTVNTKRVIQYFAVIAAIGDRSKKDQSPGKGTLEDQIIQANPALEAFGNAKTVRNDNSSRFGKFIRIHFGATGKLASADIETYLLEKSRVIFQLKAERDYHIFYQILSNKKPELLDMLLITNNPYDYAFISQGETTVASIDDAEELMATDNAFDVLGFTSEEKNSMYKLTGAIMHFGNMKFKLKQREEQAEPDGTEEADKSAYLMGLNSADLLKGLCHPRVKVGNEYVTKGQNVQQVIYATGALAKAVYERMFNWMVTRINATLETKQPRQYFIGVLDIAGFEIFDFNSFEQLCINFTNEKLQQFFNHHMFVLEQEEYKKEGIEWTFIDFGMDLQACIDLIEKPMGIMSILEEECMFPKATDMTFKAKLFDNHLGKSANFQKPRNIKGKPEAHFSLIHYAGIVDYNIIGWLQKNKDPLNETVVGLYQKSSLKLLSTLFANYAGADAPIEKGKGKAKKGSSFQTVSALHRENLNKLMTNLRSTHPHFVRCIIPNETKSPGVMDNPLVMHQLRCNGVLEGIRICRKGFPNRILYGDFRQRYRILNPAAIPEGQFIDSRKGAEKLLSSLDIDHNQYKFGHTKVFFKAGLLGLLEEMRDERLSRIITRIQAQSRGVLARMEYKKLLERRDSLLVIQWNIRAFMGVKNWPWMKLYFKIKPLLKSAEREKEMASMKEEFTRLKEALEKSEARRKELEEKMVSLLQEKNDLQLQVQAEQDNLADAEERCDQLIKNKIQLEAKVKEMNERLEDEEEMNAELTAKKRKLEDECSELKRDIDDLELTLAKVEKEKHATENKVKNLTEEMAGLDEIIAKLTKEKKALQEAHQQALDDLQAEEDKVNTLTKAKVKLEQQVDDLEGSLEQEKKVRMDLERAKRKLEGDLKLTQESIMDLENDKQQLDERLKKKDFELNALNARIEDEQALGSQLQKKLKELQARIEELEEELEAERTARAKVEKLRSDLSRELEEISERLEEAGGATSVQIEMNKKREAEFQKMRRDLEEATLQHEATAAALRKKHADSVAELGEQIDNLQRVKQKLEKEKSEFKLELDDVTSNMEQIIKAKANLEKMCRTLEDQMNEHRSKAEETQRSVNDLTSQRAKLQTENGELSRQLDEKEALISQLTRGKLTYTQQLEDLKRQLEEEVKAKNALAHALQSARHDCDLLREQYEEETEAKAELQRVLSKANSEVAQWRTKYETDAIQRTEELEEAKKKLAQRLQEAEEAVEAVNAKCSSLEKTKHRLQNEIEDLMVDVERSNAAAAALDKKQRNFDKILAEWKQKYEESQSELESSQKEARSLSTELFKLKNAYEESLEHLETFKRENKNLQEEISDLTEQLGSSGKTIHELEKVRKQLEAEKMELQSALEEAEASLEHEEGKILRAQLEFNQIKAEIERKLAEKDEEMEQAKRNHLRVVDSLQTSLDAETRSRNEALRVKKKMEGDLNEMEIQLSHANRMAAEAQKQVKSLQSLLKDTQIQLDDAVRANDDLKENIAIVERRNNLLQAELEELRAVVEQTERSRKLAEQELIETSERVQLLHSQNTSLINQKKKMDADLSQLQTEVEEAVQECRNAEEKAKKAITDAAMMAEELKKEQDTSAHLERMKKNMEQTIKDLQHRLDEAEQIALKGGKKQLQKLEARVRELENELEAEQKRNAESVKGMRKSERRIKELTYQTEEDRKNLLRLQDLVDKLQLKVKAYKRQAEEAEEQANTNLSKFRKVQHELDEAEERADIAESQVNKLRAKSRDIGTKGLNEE
T1 sequence (P08590 whole entry partner): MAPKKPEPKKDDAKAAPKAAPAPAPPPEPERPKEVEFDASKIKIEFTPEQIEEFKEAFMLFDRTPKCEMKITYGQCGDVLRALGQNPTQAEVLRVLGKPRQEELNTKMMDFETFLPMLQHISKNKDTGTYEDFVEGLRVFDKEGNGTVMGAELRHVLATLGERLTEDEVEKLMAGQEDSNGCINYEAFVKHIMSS
T1 sequence (P10916 whole entry partner): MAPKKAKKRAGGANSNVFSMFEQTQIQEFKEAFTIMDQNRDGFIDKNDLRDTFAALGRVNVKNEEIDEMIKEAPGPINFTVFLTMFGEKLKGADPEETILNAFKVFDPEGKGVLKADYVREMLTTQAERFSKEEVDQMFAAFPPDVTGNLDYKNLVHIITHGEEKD

Consider `CCNC(=O)Cn1nc(-c2cnc(NC34CC(F)(C3)C4)nc2)ccc1=O` [Compound I-57, N-ethyl-2-(3-(2-((3-fluorobicyclo[1.1.1]pentan-1-yl)amino)pyrimidin-5-yl)-6-oxopyridazin-1(6H)-yl)acetamide], for which the IC50 in test [1] (Table 5A) was greater than 100 µM; in test [2] (Table 4A), less than 10 µM.
Consider `COc1ccc(-c2ccc(=O)n(CC(=O)Nc3cccc(C)n3)n2)cc1` [IIIb-59, 2-(3-(4-methoxyphenyl)-6-oxopyridazin-1(6H)-yl)-N-(6-methylpyridin-2-yl)acetamide], for which the IC50 in test [1] (Table 5C) and in test [2] (Table 4C) was greater than 100 µM throughout.
Turning to `CC(C)[C@@](C)(C#N)NC(=O)Cn1nc(-c2ccc(OC(F)F)nc2)ccc1=O` (stereo in doubt) [Compound I-34, N-(2-cyano-3-methylbutan-2-yl)-2-(3-(6-(difluoromethoxy)pyridin-3-yl)-6-oxopyridazin-1(6H)-yl)acetamide], the IC50 was greater than 100 µM in test [1] (Table 5A) and 10 to 100 µM in test [2] (Table 4A).
On to “N-cyclobutyl-2-[3-[2-(2-methylpropoxy)pyrimidin-5-yl]-6-oxopyridazin-1-yl]acetamide [Compound I-79]”, for which the IC50 in test [1] (Table 5A) and in test [2] (Table 4A) was greater than 100 µM each time.
With `CC[C@H](C)NC(=O)Cn1nc(-c2ccccc2)ccc1=O` [IIIc-57, (S)-N-(sec-butyl)-2-(6-oxo-3-phenylpyridazin-1(6H)-yl)acetamide], the results for the IC50 in test [1] (Table 5C) and in test [2] (Table 4C) were greater than 100 µM and 10 to 100 µM, respectively.
With `O=C(Cn1nc(-c2cnc(NC34CC(C3)C4)nc2)ccc1=O)NC1CCC1` [Compound I-50, 2-(3-(2-(bicyclo[1.1.1]pentan-1-ylamino)pyrimidin-5-yl)-6-oxopyridazin-1(6H)-yl)-N-cyclobutyl-acetamide], the IC50 in test [1] (Table 5A) was greater than 100 µM; in test [2] (Table 4A), less than 10 µM.
Consider `O=C(Cn1nc(-c2ccc(OCC(F)(F)F)nc2)ccc1=O)NC1CCC1` [Compound I-56, N-cyclobutyl-2-(6-oxo-3-(6-(2,2,2-trifluoroethoxy)pyridin-3-yl)pyridazin-1(6H)-yl)acetamide], for which the IC50 in test [1] (Table 5A) was 10 to 100 µM; in test [2] (Table 4A), less than 10 µM.
Consider `COc1ccc(-c2ccc(=O)n(CC(=O)NCCC(C)C)n2)cc1` [IIIb-48, N-isopentyl-2-(3-(4-methoxyphenyl)-6-oxopyridazin-1(6H)-yl)acetamide], for which the IC50 in test [1] (Table 5C) and in test [2] (Table 4C) was greater than 100 µM throughout.
On to `COc1ccc(-c2ccc(=O)n(CC(=O)NC(C)C)n2)cn1` [Compound I-16, N-isopropyl-2-(3-(6-methoxypyridin-3-yl)-6-oxopyridazin-1(6H)-yl)acetamide], for which the IC50 in test [1] (Table 5A) was greater than 100 µM; in test [2] (Table 4A) it was 10 to 100 µM.
Consider `COc1ccc(-c2ccc(=O)n(CC(=O)NC3CC3)n2)cc1` [IIIb-22, N-cyclopropyl-2-(3-(4-methoxyphenyl)-6-oxopyridazin-1(6H)-yl)acetamide], for which the IC50 in test [1] (Table 5C) was greater than 100 µM; in test [2] (Table 4C), 10 to 100 µM.
With `COc1ccc(-c2ccc(=O)n(CC(=O)NCc3ccc(F)cc3)n2)cc1` [IIIb-50, N-(4-fluorobenzyl)-2-(3-(4-methoxyphenyl)-6-oxopyridazin-1(6H)-yl)acetamide], the IC50 in test [1] (Table 5C) and in test [2] (Table 4C) was greater than 100 µM throughout.
Take `CC(=O)Nc1ccc(-c2ccc(=O)n(CC(=O)NC(C)C)n2)cc1` [II-14, 2-(3-(4-acetamidophenyl)-6-oxopyridazin-1(6H)-yl)-N-isopropylacetamide]: the IC50 was greater than 100 µM in test [1] (Table 5B) and 10 to 100 µM in test [2] (Table 4B).
Consider `CCNC(=O)Cn1nc(-c2ccc(OCC(F)(F)F)nc2)ccc1=O` [Compound I-13, N-ethyl-2-(6-oxo-3-(6-(2,2,2-trifluoroethoxy)pyridin-3-yl)pyridazin-1(6H)-yl)acetamide], for which the values for the IC50 in test [1] (Table 5A) and in test [2] (Table 4A) were greater than 100 µM and 10 to 100 µM, respectively.
`COc1ccc(-c2ccc(=O)n(CC(=O)NCCc3ccc(OC)c(OC)c3)n2)cc1` [IIIb-51, N-(3,4-dimethoxyphenethyl)-2-(3-(4-methoxyphenyl)-6-oxopyridazin-1(6H)-yl)acetamide]: the IC50 in test [1] (Table 5C) and in test [2] (Table 4C) was greater than 100 µM each time.
With `CCNC(=O)Cn1nc(-c2ccc(NC3CC(F)(F)C3)nc2)ccc1=O` [Compound I-74, 2-(3-(6-((3,3-difluorocyclobutyl)amino)pyridin-3-yl)-6-oxopyridazin-1(6H)-yl)-N-ethylacetamide], the IC50 in test [1] (Table 5A) was greater than 100 µM; in test [2] (Table 4A), 10 to 100 µM.
Consider `COc1ccc(-c2ccc(=O)n(CC(=O)Nc3cccc4[nH]ccc34)n2)cc1` [IIIb-3, N-(1H-indol-4-yl)-2-(3-(4-methoxyphenyl)-6-oxopyridazin-1(6H)-yl)acetamide], for which the 50% inhibitory concentration (IC50) is greater than 100 µM in test [1] (Table 5C) and less than 10 µM in test [2] (Table 4C).
Take `CCNC(=O)Cn1nc(-c2ccc(C3CC3)cc2)ccc1=O` [IIIa-19]: the IC50 is greater than 100 µM in test [1] (Table 5C) and less than 10 µM in test [2] (Table 4C).
On to `COc1ccc(-c2ccc(=O)n(CC(=O)NC(C)CCc3ccccc3)n2)cc1` (stereo not shown) [IIIb-30, 2-(3-(4-methoxyphenyl)-6-oxopyridazin-1(6H)-yl)-N-(4-phenylbutan-2-yl)acetamide], for which the IC50 in test [1] (Table 5C) and in test [2] (Table 4C) was 10 to 100 µM each time.
For `CCNC(=O)Cn1nc(-c2ccc(OCC(F)(F)F)cc2)ccc1=O` [II-6, N-ethyl-2-(6-oxo-3-(4-(2,2,2-trifluoroethoxy)phenyl)pyridazin-1(6H)-yl)acetamide], the IC50 in test [1] (Table 5B) is greater than 100 µM; in test [2] (Table 4B), less than 10 µM.
In the case of `CC[C@H](C)NC(=O)Cn1nc(-c2ccc(Cl)cc2)ccc1=O` [IIIc-30, (S)-N-(sec-butyl)-2-(3-(4-chlorophenyl)-6-oxopyridazin-1(6H)-yl)acetamide], the IC50 in test [1] (Table 5C) was greater than 100 µM; in test [2] (Table 4C), 10 to 100 µM.
Turning to `CCCNC(=O)Cn1nc(-c2ccc(OC(F)F)cc2)ccc1=O` [II-12, 2-(3-(4-(difluoromethoxy)phenyl)-6-oxopyridazin-1(6H)-yl)-N-propylacetamide], the values for the IC50 in test [1] (Table 5B) and in test [2] (Table 4B) were greater than 100 µM and 10 to 100 µM, respectively.
For the molecule `COc1ccc(-c2ccc(=O)n(CC(=O)Nc3ccc(Cl)cc3Cl)n2)c(F)c1` [IIIb-35, N-(2,4-dichlorophenyl)-2-(3-(2-fluoro-4-methoxyphenyl)-6-oxopyridazin-1(6H)-yl)acetamide], the values for the IC50 in test [1] (Table 5C) and in test [2] (Table 4C) were greater than 100 µM and 10 to 100 µM, respectively.
As for `CCC1CCC(CNC(=O)Cn2nc(-c3ccccc3)ccc2=O)CC1` (stereo not shown) [IIIc-55, N-((4-ethylcyclohexyl)methyl)-2-(6-oxo-3-phenylpyridazin-1(6H)-yl)acetamide], the figures for the IC50 in test [1] (Table 5C) and in test [2] (Table 4C) were greater than 100 µM and 10 to 100 µM, respectively.
On to `COc1ccc(-c2ccc(=O)n(CC(=O)Nc3ccc4c(c3)OCO4)n2)c(F)c1` [IIIb-33, N-(benzo[d][1,3]dioxol-5-yl)-2-(3-(2-fluoro-4-methoxyphenyl)-6-oxopyridazin-1(6H)-yl)acetamide], for which the IC50 in test [1] (Table 5C) is greater than 100 µM; in test [2] (Table 4C), 10 to 100 µM.
The matching figures for `COc1ccc(-c2ccc(=O)n(CC(=O)NCc3ccccc3Cl)n2)c(C)c1` [IIIa-22, N-(2-chlorobenzyl)-2-(3-(4-methoxy-2-methylphenyl)-6-oxopyridazin-1(6H)-yl)acetamide]: greater than 100 µM and 10 to 100 µM.
Turning to `O=C(Cn1nc(-c2ccccc2)ccc1=O)NCCC1=CCCCC1` [IIIc-48, N-(2-(cyclohex-1-en-1-yl)ethyl)-2-(6-oxo-3-phenylpyridazin-1(6H)-yl)acetamide], the IC50 was greater than 100 µM in test [1] (Table 5C) and less than 10 µM in test [2] (Table 4C).

One may read the IC50 as the concentration at which inhibition is half-maximal. Read a low IC50 as inhibition by little substance.

(Values after patent publication US12415794B2 (Edgewise Therapeutics, Inc., priority 2018, dated 2025).)
